Assay results published in PubChem BioAssay AID1963835 (Molecular Pharmacology Branch, DTP, NCI, 2024).

Tested on: 699152-130-R-J1-PDC complex spheroid viability
Experiment: Anticancer human tumor 699152-130-R-J1-PDC patient-derived pancreatic carcinoma cell line growth inhibition [POLQ]
Details: for IC50: curve of first compound; for viability, T/C: stronger effect = lower value
Summary of the method: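 Complex spheroid viability model combining PDC tumour cells with endothelial (HUVEC) and MSC stromal cells. Novobiocin, ART-558 or RP6685 were tested singly and in combination with standard and investigational anticancer drugs. Each was titrated in half-log steps from near clinical Cmax, or from 10 microM where Cmax was unknown.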

[1] = second compound 0.0316 µM, first compound 0.0316 µM
[2] = second compound 0.0316 µM, first compound 0.1 µM
[3] = second compound 0.0316 µM, first compound 0.316 µM
[4] = second compound 0.0316 µM, first compound 1 µM
[5] = second compound 0.0316 µM, first compound 3.16 µM
[6] = second compound 0.0316 µM, first compound 10 µM
[7] = second compound 0.1 µM, first compound 0.0316 µM
[8] = second compound 0.1 µM, first compound 0.1 µM
[9] = second compound 0.1 µM, first compound 0.316 µM
[10] = second compound 0.1 µM, first compound 1 µM
[11] = second compound 0.1 µM, first compound 3.16 µM
[12] = second compound 0.1 µM, first compound 10 µM
[13] = second compound 0.316 µM, first compound 0.0316 µM
[14] = second compound 0.316 µM, first compound 0.1 µM
[15] = second compound 0.316 µM, first compound 0.316 µM
[16] = second compound 0.316 µM, first compound 1 µM
[17] = second compound 0.316 µM, first compound 3.16 µM
[18] = second compound 0.316 µM, first compound 10 µM
[19] = second compound 1 µM, first compound 0.0316 µM
[20] = second compound 1 µM, first compound 0.1 µM
[21] = second compound 1 µM, first compound 0.316 µM
[22] = second compound 1 µM, first compound 1 µM
[23] = second compound 1 µM, first compound 3.16 µM
[24] = second compound 1 µM, first compound 10 µM
[25] = second compound 3.16 µM, first compound 0.0316 µM
[26] = second compound 3.16 µM, first compound 0.1 µM
[27] = second compound 3.16 µM, first compound 0.316 µM
[28] = second compound 3.16 µM, first compound 1 µM
[29] = second compound 3.16 µM, first compound 3.16 µM
[30] = second compound 3.16 µM, first compound 10 µM
[31] = second compound 10 µM, first compound 0.0316 µM
[32] = second compound 10 µM, first compound 0.1 µM
[33] = second compound 10 µM, first compound 0.316 µM
[34] = second compound 10 µM, first compound 1 µM
[35] = second compound 10 µM, first compound 3.16 µM
[36] = second compound 10 µM, first compound 10 µM
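Further: spheroids exposed to agents for 7 days before viability reading.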
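Wherever viability, T/C is given: percent of DMSO vehicle control viability so 100% = vehicle and 0% = no viable signal.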

SMILES: CNCc1ccc(-c2[nH]c3cc(F)cc4c3c2CCNC4=O)cc1 + Cc1cccc(N(C)C(=O)C2C(O)CCN2c2nc(C)cc(C(F)(F)F)c2C#N)c1
- IC50 (second compound 0.0316 µM): > 10000 nM
- IC50 (second compound 0.1 µM): > 10000 nM
- IC50 (second compound 0.316 µM): > 10000 nM
- IC50 (second compound 1 µM): > 10000 nM
- IC50 (second compound 3.16 µM): > 10000 nM
- IC50 (second compound 10 µM): > 10000 nM
- viability, T/C [1]: 95.5%
- viability, T/C [2]: 88.8%
- viability, T/C [3]: 101%
- viability, T/C [4]: 95.3%
- viability, T/C [5]: 113%
- viability, T/C [6]: 126%
- viability, T/C [7]: 88.8%
- viability, T/C [8]: 106%
- viability, T/C [9]: 92.2%
- viability, T/C [10]: 103%
- viability, T/C [11]: 105%
- viability, T/C [12]: 119%
- viability, T/C [13]: 95.5%
- viability, T/C [14]: 94.2%
- viability, T/C [15]: 96.6%
- viability, T/C [16]: 111%
- viability, T/C [17]: 123%
- viability, T/C [18]: 114%
- viability, T/C [19]: 92.7%
- viability, T/C [20]: 86.9%
- viability, T/C [21]: 88.9%
- viability, T/C [22]: 94.8%
- viability, T/C [23]: 99.4%
- viability, T/C [24]: 127%
- viability, T/C [25]: 101%
- viability, T/C [26]: 87.7%
- viability, T/C [27]: 96.6%
- viability, T/C [28]: 98.1%
- viability, T/C [29]: 115%
- viability, T/C [30]: 122%
- viability, T/C [31]: 99.2%
- viability, T/C [32]: 101%
- viability, T/C [33]: 105%
- viability, T/C [34]: 97.9%
- viability, T/C [35]: 109%
- viability, T/C [36]: 116%

SMILES: COc1cccc(OCCCN)c1-c1cc(Nc2cnc(C#N)cn2)n[nH]1 + Cc1cccc(N(C)C(=O)C2C(O)CCN2c2nc(C)cc(C(F)(F)F)c2C#N)c1
- IC50 (second compound 0.0316 µM): > 1000 nM
- IC50 (second compound 0.1 µM): > 1000 nM
- IC50 (second compound 0.316 µM): > 1000 nM
- IC50 (second compound 1 µM): > 1000 nM
- IC50 (second compound 3.16 µM): > 1000 nM
- IC50 (second compound 10 µM): > 1000 nM
- viability, T/C (second compound 0.0316 µM, first compound 0.00316 µM): 93%
- viability, T/C (second compound 0.0316 µM, first compound 0.01 µM): 75.7%
- viability, T/C [1]: 64.7%
- viability, T/C [2]: 63.1%
- viability, T/C [3]: 50.8%
- viability, T/C [4]: 51.2%
- viability, T/C (second compound 0.1 µM, first compound 0.00316 µM): 89.4%
- viability, T/C (second compound 0.1 µM, first compound 0.01 µM): 85.7%
- viability, T/C [7]: 67.4%
- viability, T/C [8]: 58.1%
- viability, T/C [9]: 55.5%
- viability, T/C [10]: 49.1%
- viability, T/C (second compound 0.316 µM, first compound 0.00316 µM): 100%
- viability, T/C (second compound 0.316 µM, first compound 0.01 µM): 91.3%
- viability, T/C [13]: 61.5%
- viability, T/C [14]: 59.6%
- viability, T/C [15]: 54.5%
- viability, T/C [16]: 46.7%
- viability, T/C (second compound 1 µM, first compound 0.00316 µM): 92.8%
- viability, T/C (second compound 1 µM, first compound 0.01 µM): 90.7%
- viability, T/C [19]: 61.2%
- viability, T/C [20]: 54.1%
- viability, T/C [21]: 52.8%
- viability, T/C [22]: 48.7%
- viability, T/C (second compound 3.16 µM, first compound 0.00316 µM): 86.3%
- viability, T/C (second compound 3.16 µM, first compound 0.01 µM): 86.4%
- viability, T/C [25]: 67.2%
- viability, T/C [26]: 56.3%
- viability, T/C [27]: 51.2%
- viability, T/C [28]: 57.3%
- viability, T/C (second compound 10 µM, first compound 0.00316 µM): 98.1%
- viability, T/C (second compound 10 µM, first compound 0.01 µM): 88%
- viability, T/C [31]: 61.6%
- viability, T/C [32]: 59%
- viability, T/C [33]: 58.4%
- viability, T/C [34]: 56.1%

SMILES: Nc1ccn(C2OC(CO)C(O)C2(F)F)c(=O)n1 (stereo not drawn) + Cc1cccc(N(C)C(=O)C2C(O)CCN2c2nc(C)cc(C(F)(F)F)c2C#N)c1
- IC50 (second compound 0.0316 µM): 958 nM
- IC50 (second compound 0.1 µM): 408 nM
- IC50 (second compound 0.316 µM): 468 nM
- IC50 (second compound 1 µM): 1240 nM
- IC50 (second compound 3.16 µM): 2050 nM
- IC50 (second compound 10 µM): 3290 nM
- viability, T/C [1]: 70.1%
- viability, T/C [2]: 57%
- viability, T/C [3]: 53.7%
- viability, T/C [4]: 52.5%
- viability, T/C [5]: 48%
- viability, T/C [6]: 39%
- viability, T/C [7]: 75%
- viability, T/C [8]: 58.9%
- viability, T/C [9]: 50.3%
- viability, T/C [10]: 48.8%
- viability, T/C [11]: 45%
- viability, T/C [12]: 44.7%
- viability, T/C [13]: 75%
- viability, T/C [14]: 62.3%
- viability, T/C [15]: 49.6%
- viability, T/C [16]: 44.6%
- viability, T/C [17]: 51.6%
- viability, T/C [18]: 37.9%
- viability, T/C [19]: 74%
- viability, T/C [20]: 55.3%
- viability, T/C [21]: 60.9%
- viability, T/C [22]: 52.6%
- viability, T/C [23]: 44.8%
- viability, T/C [24]: 42.1%
- viability, T/C [25]: 72.9%
- viability, T/C [26]: 63.3%
- viability, T/C [27]: 57.9%
- viability, T/C [28]: 55%
- viability, T/C [29]: 45.6%
- viability, T/C [30]: 46.5%
- viability, T/C [31]: 76.4%
- viability, T/C [32]: 63.5%
- viability, T/C [33]: 56.6%
- viability, T/C [34]: 59.5%
- viability, T/C [35]: 53.6%
- viability, T/C [36]: 42.6%

SMILES: O=c1[nH]cc(F)c(=O)[nH]1 + Cc1cccc(N(C)C(=O)C2C(O)CCN2c2nc(C)cc(C(F)(F)F)c2C#N)c1
- IC50 (second compound 0.0316 µM): > 10000 nM
- IC50 (second compound 0.1 µM): > 10000 nM
- IC50 (second compound 0.316 µM): > 10000 nM
- IC50 (second compound 1 µM): > 10000 nM
- IC50 (second compound 3.16 µM): > 10000 nM
- IC50 (second compound 10 µM): > 10000 nM
- viability, T/C [1]: 105%
- viability, T/C [2]: 109%
- viability, T/C [3]: 107%
- viability, T/C [4]: 113%
- viability, T/C [5]: 102%
- viability, T/C [6]: 74.1%
- viability, T/C [7]: 110%
- viability, T/C [8]: 113%
- viability, T/C [9]: 99.2%
- viability, T/C [10]: 107%
- viability, T/C [11]: 100%
- viability, T/C [12]: 82.6%
- viability, T/C [13]: 120%
- viability, T/C [14]: 122%
- viability, T/C [15]: 106%
- viability, T/C [16]: 107%
- viability, T/C [17]: 120%
- viability, T/C [18]: 79.9%
- viability, T/C [19]: 108%
- viability, T/C [20]: 104%
- viability, T/C [21]: 104%
- viability, T/C [22]: 111%
- viability, T/C [23]: 92.1%
- viability, T/C [24]: 74.7%
- viability, T/C [25]: 113%
- viability, T/C [26]: 116%
- viability, T/C [27]: 108%
- viability, T/C [28]: 104%
- viability, T/C [29]: 117%
- viability, T/C [30]: 87.3%
- viability, T/C [31]: 103%
- viability, T/C [32]: 102%
- viability, T/C [33]: 104%
- viability, T/C [34]: 92.8%
- viability, T/C [35]: 91.3%
- viability, T/C [36]: 84.6%
